The values below come from patent publication US7507736B2, “Indol-2-yl-piperazin-1-yl-methanone derivatives” (Hoffmann-La Roche Inc., priority 2007, dated 2009).

This assay deals with T1, human H3R (Homo sapiens, UniProt Q9Y5N1).
T1 construct: expressed in transfected cells; host or cells: CHO cells
Description: Binding assay with 3H-(R)α-methylhistamine (competition binding, H3R-CHO membranes). Conditions: competition vs 3H(R)α-methylhistamine (1 nM), membranes of the human H3R-CHO cell line; Ki calculated from IC50 by Cheng-Prusoff. The method, then: Binding Assay with ^3H—(R)α-methylhistamine
Saturation binding experiments were performed using HR3-CHO membranes prepared as described in Takahashi, K, Tokita, S., Kotani, H. (2003) J. Pharmacol. Exp. Therapeutics 307, 213-218.
An appropriate amount of membrane (60 to 80 μg protein/well) was incubated with increasing concentrations of ^3H(R)α-Methylhistamine di-hydrochloride (0.10 to 10 nM). Non specific binding was determined using a 200 fold excess of cold (R)α-Methylhistamine dihydrobromide (500 nM final concentration). The incubation was carried out at room temperature (in deep-well plates shaking for three hours). The final volume in each well was 250 μl. The incubation was followed by rapid filtration on GF/B filters (pre-soaked with 100 μl of 0.5% PEI in Tris 50 mM shaking at 200 rpm for two hours). The filtration was made using a cell-harvester and the filter plates were then washed five times with ice cold washing buffer containing 0.5 M NaCl. After harvesting, the plates were dried at 55° C. for 60 min, then we added scintillation fluid (Microscint 40, 40 microl in each well) and the amount of radioactivity on the filter was determined in Packard top-counter after shaking the plates for two hours at 200 rpm at room temperature. • Binding Buffer: 50 mM Tris-HCl pH 7.4 and 5 mM MgCl2×6H2O pH 7.4. Washing Buffer: 50 mM Tris-HCl pH 7.4 and 5 mM MgCl2×6H2O and 0.5 M NaCl pH 7.4.
Indirect measurement of affinity of H3R inverse agonists: twelve increasing concentrations (ranging from 10 μM to 0.3 nM) of the selected compounds were always tested in competition binding experiments using membrane of the human H3R—CHO cell line. An appropriate amount of protein, e.g. approximately 500 cpm binding of RAMH at Kd, were incubated for 1 hour at room temperature in 250 μl final volume in 96-well plates in presence of ^3H(R)α-methylhistamine (1 nM final concentration=Kd). Non-specific binding was determined using a 200 fold excess of cold (R)α-methylhistamine dihydrobromide.
All compounds were tested at a single concentration in duplicate. […] The concentration at which 50% inhibition of the radioligand ^3H(R)α-methylhistamine is obtained (the IC50) is determined from the linear regression of a plot of the logarithm of the concentration versus percent inhibition measured for the different concentrations. Ki's were calculated from IC50 based on Cheng-Prusoff equation (Cheng, Y. Prusoff, W H (1973) Biochem Pharmacol 22, 3099-3108): Ki=IC50/[1+D/Kd] wherein D is the concentration of the radioligand and Kd is the binding constant for the radioligand binding to the receptor under the conditions used in the competition experiment.

T1 sequence (Q9Y5N1 whole entry): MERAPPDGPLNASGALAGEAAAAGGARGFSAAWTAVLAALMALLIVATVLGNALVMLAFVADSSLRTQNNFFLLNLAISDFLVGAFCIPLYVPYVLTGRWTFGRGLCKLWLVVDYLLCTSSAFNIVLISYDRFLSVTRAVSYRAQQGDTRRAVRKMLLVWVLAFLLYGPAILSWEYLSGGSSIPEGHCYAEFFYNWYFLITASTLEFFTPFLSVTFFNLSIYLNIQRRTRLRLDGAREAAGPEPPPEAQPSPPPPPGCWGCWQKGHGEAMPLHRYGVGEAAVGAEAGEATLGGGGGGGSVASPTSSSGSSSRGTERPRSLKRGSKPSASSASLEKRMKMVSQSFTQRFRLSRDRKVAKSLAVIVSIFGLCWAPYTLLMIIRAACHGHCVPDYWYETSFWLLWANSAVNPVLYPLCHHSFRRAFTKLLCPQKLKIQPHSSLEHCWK

For the compound `CC(C)N1CCC(Oc2cc3cc(C(=O)N4CCN(S(=O)(=O)N(C)C)CC4)[nH]c3cc2Br)CC1` [Example 3, 4-[6-Bromo-5-(1-isopropyl-piperidin-4-yloxy)-1H-indole-2-carbonyl]-piperazine-1-sulfonic acid dimethylamide], the Ki is 4.3 nM.

As to `CC(C)N1CCC(Oc2ccc3c(c2)cc(C(=O)N2CCN(S(C)(=O)=O)CC2)n3CC(F)F)CC1` [Example 55, [1-(2,2-Difluoro-ethyl)-5-(1-isopropyl-piperidin-4-yloxy)-1H-indol-2-yl]-(4-methanesulfonyl-piperazin-1-yl)-methanone], the Ki is 6.7 nM.

As for `COC(=O)N1CCN(C(=O)c2cc3cc(OC4CCN(C(C)C)CC4)ccc3n2C(C)C)CC1` [Example 73, 4-[1-Isopropyl-5-(1-isopropyl-piperidin-4-yloxy)-1H-indole-2-carbonyl]-piperazine-1-carboxylic acid methyl ester], the Ki is 10.4 nM.

Take `CC(=O)N1CCN(C(=O)c2cc3cc(OC4CCN(C(C)C)CC4)c(Br)cc3n2-c2ccnc(Cl)c2)CC1` [Example 28, 1-{4-[6-Bromo-1-(2-chloro-pyridin-4-yl)-5-(1-isopropyl-piperidin-4-yloxy)-1H-indole-2-carbonyl]-piperazin-1-yl}-ethanone]: the Ki was 1.8 nM.

Turning to `Cc1ccc(S(=O)(=O)N2CCN(C(=O)c3cc4cc(O[C@H]5C[C@H]6CC[C@@H](C5)N6C(C)C)ccc4n3C(C)C)CC2)cc1` [Example 44, [1-Isopropyl-5-((1S,3r,5R)-8-isopropyl-8-aza-bicyclo[3.2.1]oct-3-yloxy)-1H-indol-2-yl]-[4-(toluene-4-sulfonyl)-piperazin-1-yl]-methanone], the inhibition constant Ki was 2.4 nM.

With `CC(C)N1CCC(Oc2cc3cc(C(=O)N4CCN(S(C)(=O)=O)CC4)n(C(C)C)c3cc2Br)CC1` [Example 5, [6-Bromo-1-isopropyl-5-(1-isopropyl-piperidin-4-yloxy)-1H-indol-2-yl]-(4-methanesulfonyl-piperazin-1-yl)-methanone], the Ki was 3.4 nM.

As to `CC(C)N1CCC(Oc2cc3cc(C(=O)N4CCN(C(=O)C5CC5)CC4)[nH]c3cc2Br)CC1` [Example 18, [6-Bromo-5-(1-isopropyl-piperidin-4-yloxy)-1H-indol-2-yl]-(4-cyclopropanecarbonyl-piperazin-1-yl)-methanone], the Ki is 2.3 nM.

By Ki is commonly meant a measure of affinity in units of concentration, obtained from inhibition or displacement.
